{"source": "patent US11167006B2", "about": "(Shanghai Tianci Life Science Development Co., Ltd., priority 2016, dated 2021)", "key": {"[1]": {"test_system": "neuralgia induced by chronic compression of the sciatic nerve in mice", "test": "CCI neuralgia model (thermal and mechanical pain)", "format": "in vivo, mouse", "protocol": "The chronic compression model of the sciatic nerve (CCI) was mainly used for the mouse neuralgia. The detection method uses thermal tingling instrument and electronic Von Frey tenderness instrument to simultaneously detect thermal pain and mechanical pain. Firstly, the basic pain threshold of thermal pain and mechanical pain in normal mice were determined respectively. The mice were then anesthetized with sodium pentobarbital (i.p., 80 mg/kg mouse body weight) and the mice were fixed in the prone position. The right sciatic nerve was exposed and 3 mild ligation rings were made around the sciatic nerve using a 4-0 chromic catgut, 1 mm intervals. The ligation intensity is preferably a slight tremor in the right hind leg. On the 10th day after surgery, the thermal pain sensitivity value of the right hind paw of the mouse was measured, and then compound 9 was intrathecally or subcutaneously administered, and the thermal pain threshold at different time points after administration were recorded. On the 11th day after surgery, the mechanical pain sensitivity value of the right hind paw of the mouse was measured, and then Compound 9 was intrathecally or subcutaneously administered, and the mechanical pain threshold at different time points after administration were recorded.\nThe experimental data were expressed as mean±standard error (Means±S.E.M.), and the data for differences between groups treated with different drug concentrations were analyzed by one-way ANOVA (Bonferroni test in one-way ANOVA) for statistics and analysis, **P<0.01, ***P<0.001 represents that there was a significant difference between the pain threshold value of the drug-treated group and that of the saline group.\nFirst, the maximum analgesic effect (MPE) was calculated, MPE (%)=100×[(pain threshold after administration−pain sensitivity value of the hind paw in surgical side)/(basic pain threshold−pain sensitivity value of the hind paw in surgical side)]."}, "[2]": {"test_system": "CFA-induced inflammatory pain in mouse", "test": "Analgesic tolerance and cross-tolerance in CFA-induced inflammatory pain", "format": "in vivo", "protocol": "CFA-induced inflammatory pain in mouse was detected by an electronic Von Frey tenderness instrument, and the basal pain threshold of normal mice was Firstly determined. Then […] of CFA solution was injected subcutaneously into the mouse paw. After 4 days, the mechanical pain sensitivity value of the injected paw of the mouse was measured. And then compound 9 or morphine was injected for 6 consecutive days (lateral ventricle) or 7 consecutive days (subcutaneously), and the mice in morphine group were given compound 9 on day 7 (lateral ventricle) or day 8 (subcutaneous). The mechanical pain thresholds at different time points after administration were recorded.\nThe experimental data were expressed as mean± standard error (Means±S.E.M.). Data for differences between groups treated with the same drug were analyzed by one-way ANOVA (Tukey HSD test of one-way ANOVA) for statistics and analysis, *P<0.05. **P<0.005, ***P<0.001 indicates a significant difference between the mechanical pain threshold of the drug-treated group and the pain threshold after the first day of administration."}}, "note": "Square brackets hold non-standard residues; d marks the D form. Peptide text beside a SMILES is read from it. NMeF = CN[C@@H](Cc1ccccc1)C(=O)O"}
{"smiles": "C[C@@H](NC(=O)[C@@H](N)Cc1ccc(O)cc1)C(=O)NCC(=O)N(C)[C@@H](Cc1ccccc1)C(=O)NCC(=O)N1CCC[C@H]1C(=O)N[C@@H](CCC(N)=O)C(=O)N[C@@H](CCCNC(=N)N)C(=O)N[C@@H](Cc1ccccc1)C(N)=O", "note": "[Compound 9, Tyr-D-Ala-Gly-NMe-Phe-Gly-Pro-Gln-Arg-Phe-NH2] (H-Y[dA]G[NMeF]GPQRF-NH2)", "values": [{"measurement": "analgesic ED50 value, thermal hyperalgesia", "setting": "[1]; intrathecal", "result": "1.74 (1.38-2.20) pmol"}, {"measurement": "analgesic ED50 value, mechanical hyperalgesia", "setting": "[1]; subcutaneous", "result": "3.51 (3.28-3.74) mg/kg"}, {"measurement": "analgesic ED50 value, thermal hyperalgesia", "setting": "[1]; subcutaneous", "result": "3.12 (2.77-3.51) mg/kg"}, {"measurement": "analgesic tolerance on continuous injection", "setting": "[2]; mechanical pain, lateral ventricle 6 days or subcutaneous 7 days", "result": "not significantly different from that of the first day"}, {"measurement": "cross-tolerance between compound 9 and morphine", "setting": "[2]; morphine-tolerant mice given compound 9 on day 7 (lateral ventricle) or day 8 (subcutaneous)", "result": "no cross-tolerance"}]}
